Results: patent US9212387B2, “Method for detection of genes targeted by microRNA” (National University Corporation Okayama University, priority 2010, dated 2015)
{Biotin} = biotin label; {P} = phosphate

Assays:
[1] = test system: target gene mRNAs of miR-183 in HEK293 cell extract; experiment: Pull down of target gene mRNAs of miR-183 with biotinylated miRNA from cell extract, RT-PCR assay; assay type: binding, human; conditions: for candidate genes whose mRNA was pulled down / RT-PCR bands: 14 kinds of target candidate genes of miR-183, HEK293 cell extract, streptavidin agarose beads; for target candidate genes of miR-183 (10 kinds) in pull-down complex: VIL2, PPP2CA, RREB1, BCL2L11, PDCD4, LATS2, RSU1, ING3, DNMT3A, BRMS1L, wash 400 mM KCl
[2] = test system: target candidate genes of let-7b (mRNA in cell extract); experiment: Pull down of target gene mRNAs of let-7b with biotinylated miRNA, RT-PCR assay; assay type: binding, human; conditions: wash 400 mM KCl; for E2F6 and SOCS4 in pulled down mRNA: Example 8; for E2F2, TUSC2 and SRSF8 in pulled down mRNA: Example 9
Source text: In this example, in the detection method for target genes of miRNA of Example 1, target genes were detected through the use of let-7b as biotinylated miRNA. In accordance with the biotinylated miRNA of 1) of Example 1, biotinylated let-7b in which the sense strand had its 5′ end and 3′ end modified by phosphorylation and biotin, respectively, and the guide strand had only its 5′ end modified by phosphorylation and biotinylated miR-183 as a negative control were synthesized (FASMAC Co., Ltd.). A pull-down complex was obtained by the same technique as in Example 1 through the use of streptavidin beads (Streptavidin Mutein Matrix: Roche), and washed five times with a wash solution containing 400 mM KCl in the same manner as in Example 5. After that, RNA purification and cDNA synthesis were performed from the complex binding to the beads. The resulting cDNA was subjected to an RT-PCR assay with primers specific for the E2F6 and SOCS4-2 genes as target candidate genes of let-7b.
In this example, in the detection method for target genes of miRNA of Example 1, target genes were detected through the use of let-7b as biotinylated miRNA. In this example, the detection was performed by the same technique as in Example 8 except that biotinylated miR-29a was used as a negative control in place of biotinylated miR-183. Also in the case of the biotinylated miR-29a, one in which the sense strand had its 5′ end and 3′ end modified by phosphorylation and biotin, respectively, and the antisense strand had only its 5′ end modified by phosphorylation was produced (FASMAC Co., Ltd.). An RT-PCR assay was performed with primers specific for the PRDM2, E2F2, TUSC2, and SRSF8 genes as target candidate genes let-7b.

[3] = test system: target candidate genes of miR-19a (mRNA in cell extract); experiment: Pull down of target gene mRNAs of miR-19a with biotinylated miRNA, RT-PCR assay; assay type: binding, human
Source text: In this example, in the detection method for target genes of miRNA of Example 1, target genes were detected through the use of miR-19a as biotinylated miRNA. In accordance with the biotinylated miRNA of 1-1) of Example 1, biotinylated miR-19a in which the sense strand had its 5′ end and 3′ end modified by phosphorylation and biotin, respectively, and the antisense strand had only its 5′ end modified by phosphorylation was were synthesized (FASMAC Co., Ltd.). The synthesized biotinylated miR-19a (400 pmole) and biotin (B4501: Sigma, […]) as a negative control were subjected to the treatments of 1-2) and 1-3) of Example 1. A pull-down complex was obtained from the resulting complex by the same technique as in 1-4) through the use of streptavidin beads (Streptavidin Mutein Matrix: Roche), and washed five times with a wash solution containing 400 mM KCl in the same manner as in Example 5. After that, the precipitate was treated with a 5 mM biotin solution (containing 5 mM biotin and an RNase inhibitor in the wash solution containing 400 mM KCl) at 42° C. for 5 minutes, and centrifuged in the same manner, and the pull-down complex (biotinylated miR-19a) was liberated from the streptavidin beads. […]
In this example, target genes were detected through the use of miR-19a as biotinylated miRNA in the detection method for target genes of miRNA of Example 1. […]

AGO2 protein = molecular target: T1, AGO2 protein (Homo sapiens, UniProt Q9UKV8); experiment: AGO2 protein in pull-down complex, Western blot; assay type: binding; conditions: HEK293 cell extract; streptavidin agarose beads 1 hour
T1 construct: endogenous in cells; host or cells: HEK293 cell extract
Description: Biotinylated miR-183 was produced by the same technique as that for the biotinylated miRNA of 1-1) of Example 1, and a cell extract of HEK293 cells was produced by the same technique as that for the cell extract of 1-2) of Example 1. Five tubes in each of which biotinylated double-stranded miR-183 ([…]) was added to 500 μl of the cell extract were produced, and were each subjected to a reaction at 4° C. for 30 minutes, and then at 30° C. for 60 minutes to provide a solution containing a biotinylated miRNA-target gene mRNA complex. To the solution containing the complex were added streptavidin agarose beads (Streptavidin Mutein Matrix, No. 03 708 152 001: Roche), and each tube was treated at 4° C. for 0 minutes, 2 minutes, 12 minutes, 24 minutes, or 1 hour. […]
The presence or absence of the AGO2 protein in the pull-down complex of Example 2 was confirmed. […] By the same technique as in Experimental Example 1-2, the sample was electrophoresed with 8% SDS-polyacrylamide gel, proteins were then blotted onto a PVDF membrane and subjected to a reaction through the use of an anti-AGO2 antibody (Anti Human AGO2 monoclonal antibody; Wako Pure Chemical Industries, Ltd., No. 016-20861), an anti-mouse antibody, and a Vecstatin ABC-AP kit (Vector Laboratories), and a fluorescence image was acquired with an image analyzer (LAS-1000; FUJIFILM). […]

T1 sequence (Q9UKV8 whole entry): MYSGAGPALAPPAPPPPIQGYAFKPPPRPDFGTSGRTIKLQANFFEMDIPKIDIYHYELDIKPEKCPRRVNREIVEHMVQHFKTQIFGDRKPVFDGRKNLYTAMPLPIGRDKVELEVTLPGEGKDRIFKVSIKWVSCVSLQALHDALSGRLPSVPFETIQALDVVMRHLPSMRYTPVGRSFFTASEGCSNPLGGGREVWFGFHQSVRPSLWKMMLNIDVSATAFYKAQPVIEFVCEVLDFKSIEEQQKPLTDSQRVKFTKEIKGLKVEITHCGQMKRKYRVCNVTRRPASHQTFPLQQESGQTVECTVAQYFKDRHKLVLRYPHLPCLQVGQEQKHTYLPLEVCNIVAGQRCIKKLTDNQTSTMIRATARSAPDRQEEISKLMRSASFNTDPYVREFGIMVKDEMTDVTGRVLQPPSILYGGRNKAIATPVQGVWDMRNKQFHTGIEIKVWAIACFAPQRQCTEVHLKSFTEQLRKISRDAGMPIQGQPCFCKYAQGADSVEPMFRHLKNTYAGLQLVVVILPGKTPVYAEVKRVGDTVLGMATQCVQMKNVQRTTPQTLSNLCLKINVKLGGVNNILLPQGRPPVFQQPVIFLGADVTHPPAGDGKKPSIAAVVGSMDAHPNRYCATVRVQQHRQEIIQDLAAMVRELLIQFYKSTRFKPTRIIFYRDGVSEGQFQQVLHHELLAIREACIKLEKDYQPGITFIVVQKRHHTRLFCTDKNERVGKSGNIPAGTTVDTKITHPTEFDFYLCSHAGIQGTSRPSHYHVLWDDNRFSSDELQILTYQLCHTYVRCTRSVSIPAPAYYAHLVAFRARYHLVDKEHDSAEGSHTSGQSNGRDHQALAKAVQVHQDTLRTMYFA

Substance | candidate genes whose mRNA was pulled down / RT-PCR bands [1] | E2F6 and SOCS4 in pulled down mRNA [2] | E2F2, TUSC2 and SRSF8 in pulled down mRNA [2] | target candidate genes of miR-183 (10 kinds) in pull-down complex [1] | further results
biotinylated let-7b: Sense SEQ ID NO: 3, 5′-phosphorylated, 3′-biotinylated; antisense SEQ ID NO: 4 | no band for any of the genes was detected | contained | contained | – | –
biotinylated miR-19a: Sense SEQ ID NO: 7, 5′-phosphorylated, 3′-biotinylated; antisense SEQ ID NO: 8 (sense UGUGCAAAUCUAUGCAAAACUGA; antisense AGUUUUGCAUAGAUUUGCAUAAG; sense: RNA, 5' {P}, 3' {Biotin}, backbone not given here; antisense: RNA, 5' {P}, backbone not given here) | – | – | – | – | target candidate genes (9 genes) of miR-19a in pulled down mRNA ([3]; JAZF1, TNF, SMAD4, HIP1, HIC1, LRP12, TNFRSF12A, TUSC2, SIVA1, Example 11): contained; target candidate genes (7 kinds) of miR-19a in 5 mM biotin extract or on remaining beads ([3]; SOX4, INHBB, TP531NP1, PTP4A1, TNFAIP3, HIC1, CNKSR2, Example 10): present
biotinylated miR-29a: Sense SEQ ID NO: 5, 5′-phosphorylated, 3′-biotinylated; antisense SEQ ID NO: 6; negative control (sense UAGCACCAUCUGAAAUCGGUUA; antisense ACCGAUUUCAGAUGGUGCCAAG; sense: RNA, 5' {P}, 3' {Biotin}, backbone not given here; antisense: RNA, 5' {P}, backbone not given here) | – | – | not contained | – | –
biotinylated miR-183: Sense SEQ ID NO: 1, 5′-phosphorylated, 3′-biotinylated; antisense SEQ ID NO: 2 with a 1-base mismatch (sense UAUGGCACUGGUAGAAUUCACU; antisense UGAAUUCUACCAGUGCCACAAG; sense: RNA, 5' {P}, 3' {Biotin}, backbone not given here; antisense: RNA, 5' {P}, backbone not given here) | 7 | not contained | – | contained | AGO2 protein (about 95 kDa) in pull-down complex (AGO2 protein): detected
natural type miRNA: Original mature miRNA type: sense SEQ ID NO: 1, antisense SEQ ID NO: 9 (sense UAUGGCACUGGUAGAAUUCACU; antisense GUGAAUUACCGAAGGGCCAUAA; sense: RNA, 5' {P}, 3' {Biotin}, backbone not given here; antisense: RNA, 5' {P}, backbone not given here) | – | – | – | contained | –
